Data: patent US9775844B2, “Heterocyclic compounds and uses thereof” (Infinity Pharmaceuticals, Inc., priority 2014, dated 2017)

Key:
[1] = biological target: PI3K-γ in RAW264.7 macrophages (Mus musculus (Mouse), UniProt Q9JHG7); test: Raw264.7 p110 γ assay (PI3K-γ selective cellular assay, C5a-stimulated phospho-AKT); assay type: cell-based; conditions: for IC50: phospho-AKT, read-out: Raw264.7 p110 γ assay IC50
PI3K-δ in RAJI cells = PI3K-δ in RAJI cells (Homo sapiens (Human), UniProt O00329); test: RAJI p110 δ assay (PI3K-δ selective cellular assay, phospho-AKT); assay type: cell-based; conditions: phospho-AKT; read-out: RAJI p110 δ assay IC50
PI3K α = PI3K α (Homo sapiens (Human), UniProt P42336); test: PI3-Kinase Promega ADP-Glo Max assay; assay type: biochemical
Sequence of PI3K α (P42336 whole entry): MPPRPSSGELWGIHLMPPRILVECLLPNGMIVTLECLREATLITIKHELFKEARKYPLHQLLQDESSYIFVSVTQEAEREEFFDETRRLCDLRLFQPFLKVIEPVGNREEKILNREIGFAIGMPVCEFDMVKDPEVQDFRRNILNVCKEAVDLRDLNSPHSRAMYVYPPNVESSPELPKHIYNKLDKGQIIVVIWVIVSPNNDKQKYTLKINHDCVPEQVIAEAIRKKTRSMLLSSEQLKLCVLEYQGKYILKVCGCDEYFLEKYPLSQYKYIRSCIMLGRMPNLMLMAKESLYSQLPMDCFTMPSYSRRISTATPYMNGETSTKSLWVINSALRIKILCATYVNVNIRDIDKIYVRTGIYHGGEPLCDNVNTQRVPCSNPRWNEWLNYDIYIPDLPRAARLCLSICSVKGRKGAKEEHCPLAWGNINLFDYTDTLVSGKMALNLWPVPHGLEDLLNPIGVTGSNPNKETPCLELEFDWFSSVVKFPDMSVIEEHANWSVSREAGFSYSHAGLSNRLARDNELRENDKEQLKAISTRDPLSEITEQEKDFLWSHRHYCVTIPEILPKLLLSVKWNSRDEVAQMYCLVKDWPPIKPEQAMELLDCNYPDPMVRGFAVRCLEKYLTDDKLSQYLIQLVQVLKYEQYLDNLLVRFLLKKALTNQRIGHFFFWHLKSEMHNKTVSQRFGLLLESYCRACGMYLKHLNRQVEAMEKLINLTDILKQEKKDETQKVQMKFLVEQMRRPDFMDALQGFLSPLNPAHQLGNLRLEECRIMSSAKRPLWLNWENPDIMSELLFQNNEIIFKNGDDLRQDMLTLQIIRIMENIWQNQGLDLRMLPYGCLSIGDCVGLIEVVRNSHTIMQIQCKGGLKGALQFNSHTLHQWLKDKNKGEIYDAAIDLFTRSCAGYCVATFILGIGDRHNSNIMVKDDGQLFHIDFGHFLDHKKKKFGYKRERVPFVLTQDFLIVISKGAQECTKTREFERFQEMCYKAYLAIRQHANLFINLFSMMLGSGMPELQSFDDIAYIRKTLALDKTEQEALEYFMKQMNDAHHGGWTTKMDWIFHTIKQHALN
Sequence of PI3K α (P27986 whole entry partner): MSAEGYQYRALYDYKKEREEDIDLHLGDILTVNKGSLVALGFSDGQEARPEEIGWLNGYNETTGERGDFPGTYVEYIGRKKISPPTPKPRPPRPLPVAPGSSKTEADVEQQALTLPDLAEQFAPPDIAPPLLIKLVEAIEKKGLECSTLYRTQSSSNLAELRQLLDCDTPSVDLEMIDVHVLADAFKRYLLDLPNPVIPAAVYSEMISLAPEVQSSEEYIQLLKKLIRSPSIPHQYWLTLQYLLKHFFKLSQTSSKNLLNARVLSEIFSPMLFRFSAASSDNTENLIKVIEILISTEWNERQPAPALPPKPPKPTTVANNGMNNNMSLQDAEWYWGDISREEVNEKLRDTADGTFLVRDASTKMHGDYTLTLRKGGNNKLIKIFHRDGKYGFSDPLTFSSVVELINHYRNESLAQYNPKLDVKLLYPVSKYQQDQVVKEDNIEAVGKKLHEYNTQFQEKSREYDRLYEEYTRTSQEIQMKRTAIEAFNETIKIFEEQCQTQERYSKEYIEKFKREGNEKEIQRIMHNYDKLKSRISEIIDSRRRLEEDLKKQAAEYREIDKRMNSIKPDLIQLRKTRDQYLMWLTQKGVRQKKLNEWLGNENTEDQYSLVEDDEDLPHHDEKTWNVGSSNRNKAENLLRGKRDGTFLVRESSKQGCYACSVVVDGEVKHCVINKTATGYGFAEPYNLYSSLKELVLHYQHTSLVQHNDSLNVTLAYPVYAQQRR

PI3K β = PI3K β (Homo sapiens (Human), UniProt P42338); test: PI3-Kinase Promega ADP-Glo Max assay; assay type: biochemical
Sequence of PI3K β (P42338 whole entry): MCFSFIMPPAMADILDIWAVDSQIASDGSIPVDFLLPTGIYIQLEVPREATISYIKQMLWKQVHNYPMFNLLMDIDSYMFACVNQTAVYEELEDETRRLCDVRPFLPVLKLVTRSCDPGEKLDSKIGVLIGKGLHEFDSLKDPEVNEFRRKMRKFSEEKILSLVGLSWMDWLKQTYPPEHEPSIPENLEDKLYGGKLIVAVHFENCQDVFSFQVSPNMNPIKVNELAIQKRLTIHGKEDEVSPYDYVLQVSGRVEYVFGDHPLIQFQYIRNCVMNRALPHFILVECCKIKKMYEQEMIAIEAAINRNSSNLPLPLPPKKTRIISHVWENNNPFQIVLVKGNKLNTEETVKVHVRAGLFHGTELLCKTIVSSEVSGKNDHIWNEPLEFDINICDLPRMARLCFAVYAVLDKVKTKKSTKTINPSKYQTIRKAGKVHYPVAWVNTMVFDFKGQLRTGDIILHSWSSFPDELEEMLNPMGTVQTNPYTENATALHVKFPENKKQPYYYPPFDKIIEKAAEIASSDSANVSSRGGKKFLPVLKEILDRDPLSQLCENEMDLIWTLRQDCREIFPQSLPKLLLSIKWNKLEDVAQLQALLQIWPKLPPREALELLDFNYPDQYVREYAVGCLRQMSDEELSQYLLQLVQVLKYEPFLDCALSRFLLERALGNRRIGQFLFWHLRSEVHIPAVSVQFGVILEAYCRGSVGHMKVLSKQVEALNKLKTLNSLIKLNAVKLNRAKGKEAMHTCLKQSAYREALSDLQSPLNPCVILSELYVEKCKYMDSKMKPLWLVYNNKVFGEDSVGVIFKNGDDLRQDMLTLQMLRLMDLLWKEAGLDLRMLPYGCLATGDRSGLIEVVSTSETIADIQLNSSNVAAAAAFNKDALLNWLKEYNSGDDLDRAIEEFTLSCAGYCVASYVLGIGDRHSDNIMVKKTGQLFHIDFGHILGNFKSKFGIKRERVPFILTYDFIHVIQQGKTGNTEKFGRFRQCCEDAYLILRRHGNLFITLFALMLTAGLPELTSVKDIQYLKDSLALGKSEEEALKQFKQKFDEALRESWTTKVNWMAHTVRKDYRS
Sequence of PI3K β (P27986 whole entry partner): as the sequence (P27986 whole entry partner) above

PI3K γ = PI3K γ (Homo sapiens (Human), UniProt P48736); test: PI3-Kinase Promega ADP-Glo Max assay; assay type: biochemical
Sequence of PI3K γ (P48736 whole entry): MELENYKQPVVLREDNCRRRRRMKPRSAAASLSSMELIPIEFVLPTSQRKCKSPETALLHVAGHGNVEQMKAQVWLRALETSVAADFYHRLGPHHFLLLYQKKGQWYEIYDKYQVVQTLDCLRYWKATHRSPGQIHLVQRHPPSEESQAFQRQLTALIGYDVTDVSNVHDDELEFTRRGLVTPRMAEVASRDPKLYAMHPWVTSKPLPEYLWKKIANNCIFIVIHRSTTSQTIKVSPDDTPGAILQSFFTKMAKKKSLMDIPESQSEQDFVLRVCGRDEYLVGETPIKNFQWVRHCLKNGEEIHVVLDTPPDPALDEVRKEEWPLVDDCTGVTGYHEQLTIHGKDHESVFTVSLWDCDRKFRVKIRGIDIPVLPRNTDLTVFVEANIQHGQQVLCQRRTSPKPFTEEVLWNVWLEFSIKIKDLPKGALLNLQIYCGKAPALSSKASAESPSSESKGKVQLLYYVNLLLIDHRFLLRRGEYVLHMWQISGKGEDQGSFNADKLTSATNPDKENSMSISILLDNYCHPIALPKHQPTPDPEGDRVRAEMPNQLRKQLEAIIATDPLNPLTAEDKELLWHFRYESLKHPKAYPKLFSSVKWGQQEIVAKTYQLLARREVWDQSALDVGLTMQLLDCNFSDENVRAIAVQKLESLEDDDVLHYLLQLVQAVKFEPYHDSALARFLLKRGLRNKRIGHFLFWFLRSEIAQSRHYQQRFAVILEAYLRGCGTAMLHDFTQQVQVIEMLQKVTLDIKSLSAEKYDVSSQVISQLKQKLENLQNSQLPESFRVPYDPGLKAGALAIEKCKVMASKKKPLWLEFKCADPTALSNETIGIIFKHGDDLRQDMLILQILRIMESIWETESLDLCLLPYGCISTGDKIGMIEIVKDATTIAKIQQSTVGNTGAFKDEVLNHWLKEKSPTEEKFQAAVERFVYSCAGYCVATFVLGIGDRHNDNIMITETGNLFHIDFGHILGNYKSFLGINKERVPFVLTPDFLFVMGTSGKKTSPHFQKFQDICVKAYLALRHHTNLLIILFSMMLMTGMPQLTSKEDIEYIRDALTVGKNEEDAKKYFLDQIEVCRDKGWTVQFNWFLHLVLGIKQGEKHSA

PI3K δ = PI3K δ (Homo sapiens (Human), UniProt O00329); test: PI3-Kinase Promega ADP-Glo Max assay; assay type: biochemical

Sequence of PI3K-γ in RAW264.7 macrophages (Q9JHG7 whole entry): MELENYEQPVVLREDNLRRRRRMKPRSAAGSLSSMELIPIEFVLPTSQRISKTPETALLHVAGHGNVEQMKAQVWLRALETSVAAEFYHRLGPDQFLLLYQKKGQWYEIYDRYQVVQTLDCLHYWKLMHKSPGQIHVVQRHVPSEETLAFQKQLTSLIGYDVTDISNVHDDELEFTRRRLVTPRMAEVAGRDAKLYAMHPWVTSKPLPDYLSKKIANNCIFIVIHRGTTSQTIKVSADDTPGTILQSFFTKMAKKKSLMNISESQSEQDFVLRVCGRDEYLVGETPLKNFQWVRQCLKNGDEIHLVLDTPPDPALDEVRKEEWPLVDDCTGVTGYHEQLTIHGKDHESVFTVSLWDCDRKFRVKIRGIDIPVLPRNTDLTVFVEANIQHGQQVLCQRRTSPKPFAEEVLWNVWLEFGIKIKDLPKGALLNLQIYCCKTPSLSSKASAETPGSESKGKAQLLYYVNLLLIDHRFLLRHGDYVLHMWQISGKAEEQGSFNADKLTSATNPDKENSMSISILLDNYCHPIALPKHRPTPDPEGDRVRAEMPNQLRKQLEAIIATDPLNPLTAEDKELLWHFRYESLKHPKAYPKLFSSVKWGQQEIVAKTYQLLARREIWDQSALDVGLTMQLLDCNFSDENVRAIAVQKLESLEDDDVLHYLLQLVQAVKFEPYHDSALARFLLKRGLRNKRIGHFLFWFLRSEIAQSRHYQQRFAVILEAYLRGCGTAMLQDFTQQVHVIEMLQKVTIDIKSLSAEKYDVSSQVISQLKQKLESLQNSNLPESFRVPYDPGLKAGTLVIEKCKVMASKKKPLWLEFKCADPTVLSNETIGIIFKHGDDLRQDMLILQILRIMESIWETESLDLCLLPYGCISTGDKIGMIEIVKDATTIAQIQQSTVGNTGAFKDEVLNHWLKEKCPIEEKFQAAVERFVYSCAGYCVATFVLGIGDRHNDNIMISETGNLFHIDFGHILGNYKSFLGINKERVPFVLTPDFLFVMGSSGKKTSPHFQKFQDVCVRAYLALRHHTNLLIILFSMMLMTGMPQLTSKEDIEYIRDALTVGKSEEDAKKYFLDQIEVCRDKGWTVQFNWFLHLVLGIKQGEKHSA

Row | RAJIδ/Raw264.7 γ IC50 (selectivity) [1] | IC50 [1] | IC50 (PI3K-δ in RAJI cells) | IC50 (PI3K α) | IC50 (PI3K β) | IC50 (PI3K γ) | PI3K δ/PI3K γ IC50 (selectivity) (PI3K γ) | IC50 (PI3K δ) | SMILES
1 | Y (Y = 50 to <850) | 0.001 to 0.05 µM | 0.5 to 1 µM | 5 to 10 µM | 5 to 10 µM | 0.5 to 1 µM | X (X = 10 to <50) | 5 to 10 µM | CC(C)C#Cc1cccc2cc([C@H](C)NC(=O)c3c(N)nn4cccnc34)n(-c3ccccc3)c(=O)c12 [Compound 2]
2 | – | 0.05 to 0.1 µM | – | – | – | – | – | – | C[C@H](NC(=O)c1c(N)nn2cccnc12)c1cc2cccc(C#Cc3cnn(C)c3)c2c(=O)[nH]1 [Compound 44]
3 | – | – | – | 5 to 10 µM | 1 to 5 µM | 0.1 to 0.5 µM | X (X = 10 to <50) | 1 to 5 µM | Cc1nnc(C#Cc2cccc3cc([C@H](C)NC(=O)c4c(N)nn5cccnc45)n(-c4ccccc4)c(=O)c23)s1 [Compound 86]
4 | – | – | – | 5 to 10 µM | 5 to 10 µM | 0.001 to 0.1 µM | Y (Y = 50 to <850) | 5 to 10 µM | C[C@H](NC(=O)c1c(N)nn2cccnc12)c1cc2cccc(C#Cc3cnn(C)c3)c2c(=O)n1-c1cccc(F)c1 [Compound 93]
5 | – | – | – | 1 to 5 µM | 0.5 to 1 µM | 0.1 to 0.5 µM | X (X = 10 to <50) | 5 to 10 µM | C[C@H](NC(=O)c1c(N)nn2cccnc12)c1cc2cccc(C#Cc3cnn(C)c3)c2c(=O)n1C [Compound 94]
6 | – | – | – | 5 to 10 µM | 5 to 10 µM | 0.1 to 0.5 µM | X (X = 10 to <50) | 5 to 10 µM | Cc1cccc(-n2c([C@H](C)NC(=O)c3c(N)nn4cccnc34)cc3cccc(C#Cc4cnn(C)c4)c3c2=O)c1 [Compound 95]
7 | – | – | – | 1 to 5 µM | 5 to 10 µM | 0.001 to 0.1 µM | Y (Y = 50 to <850) | 5 to 10 µM | C[C@H](NC(=O)c1c(N)nn2cccnc12)c1cc2cccc(C#Cc3cnn(C)c3)c2c(=O)n1-c1ccc(F)cc1 [Compound 96]
8 | – | – | – | 5 to 10 µM | 5 to 10 µM | 0.1 to 0.5 µM | X (X = 10 to <50) | 5 to 10 µM | C[C@H](NC(=O)c1c(N)nn2cccnc12)c1cc2cccc(C#Cc3cnn(C)c3)c2c(=O)n1-c1ccc(F)c(F)c1 [Compound 97]
9 | – | – | – | 5 to 10 µM | 5 to 10 µM | 0.1 to 0.5 µM | X (X = 10 to <50) | 5 to 10 µM | Cc1ccc(-n2c([C@H](C)NC(=O)c3c(N)nn4cccnc34)cc3cccc(C#Cc4cnn(C)c4)c3c2=O)cc1 [Compound 98]
10 | – | – | – | 5 to 10 µM | 5 to 10 µM | 1 to 5 µM | X (X = 10 to <50) | 5 to 10 µM | C[C@H](NC(=O)c1c(N)nn2cccnc12)c1cc2cccc(C#Cc3cnn(C)c3)c2c(=O)n1C1CCCCC1 [Compound 99]
11 | – | – | – | 1 to 5 µM | 1 to 5 µM | 0.001 to 0.1 µM | Y (Y = 50 to <850) | 5 to 10 µM | CNS(=O)(=O)CCn1c([C@H](C)NC(=O)c2c(N)nn3cccnc23)cc2cccc(C#Cc3cnn(C)c3)c2c1=O [Compound 100]
12 | – | – | – | 5 to 10 µM | 5 to 10 µM | 0.001 to 0.1 µM | Y (Y = 50 to <850) | 5 to 10 µM | Cc1ccccc1-n1c([C@H](C)NC(=O)c2c(N)nn3cccnc23)cc2cccc(C#Cc3cnn(C)c3)c2c1=O [Compound 101]
13 | – | – | – | 5 to 10 µM | 5 to 10 µM | 0.1 to 0.5 µM | X (X = 10 to <50) | 5 to 10 µM | Cc1ccnc2c(C(=O)N[C@@H](C)c3cc4cccc(C#Cc5cnn(C)c5)c4c(=O)n3-c3ccccc3)c(N)nn12 [Compound 102]
14 | – | – | – | 5 to 10 µM | 5 to 10 µM | 0.5 to 1 µM | X (X = 10 to <50) | 5 to 10 µM | CC(C)n1c([C@H](C)NC(=O)c2c(N)nn3cccnc23)cc2cccc(C#Cc3cnn(C)c3)c2c1=O [Compound 103]
15 | – | – | – | 1 to 5 µM | 1 to 5 µM | 0.001 to 0.1 µM | Y (Y = 50 to <850) | 5 to 10 µM | C[C@H](NC(=O)c1c(N)nn2cccnc12)c1cc2cccc(C#Cc3cnn(C)c3)c2c(=O)n1CCS(=O)(=O)N(C)C [Compound 104]
16 | – | – | – | 1 to 5 µM | 5 to 10 µM | 0.001 to 0.1 µM | Y (Y = 50 to <850) | 5 to 10 µM | CC[C@H](NC(=O)c1c(N)nn2cccnc12)c1cc2cccc(C#Cc3cnn(C)c3)c2c(=O)n1-c1ccccc1 [Compound 105]
17 | – | – | – | 5 to 10 µM | 1 to 5 µM | 0.001 to 0.1 µM | Y (Y = 50 to <850) | 5 to 10 µM | Cc1ccn2nc(N)c(C(=O)N[C@@H](C)c3cc4cccc(C#Cc5cnn(C)c5)c4c(=O)n3-c3ccccc3)c2n1 [Compound 106]
18 | – | – | – | 5 to 10 µM | 5 to 10 µM | 1 to 5 µM | X (X = 10 to <50) | 5 to 10 µM | Cn1cc(C#Cc2cccc3cc(CNC(=O)c4c(N)nn5cccnc45)n(-c4ccccc4)c(=O)c23)cn1 [Compound 107]
19 | – | – | – | 5 to 10 µM | 5 to 10 µM | 0.1 to 0.5 µM | X (X = 10 to <50) | 5 to 10 µM | Cc1cc(C)n2nc(N)c(C(=O)N[C@@H](C)c3cc4cccc(C#Cc5cnn(C)c5)c4c(=O)n3-c3ccccc3)c2n1 [Compound 108]

More lines, now with the values behind:

Row | SMILES | RAJIδ/Raw264.7 γ IC50 (selectivity) [1] | IC50 [1] | IC50 (PI3K-δ in RAJI cells) | IC50 (PI3K α) | IC50 (PI3K β) | IC50 (PI3K γ) | PI3K δ/PI3K γ IC50 (selectivity) (PI3K γ) | IC50 (PI3K δ)
20 | CC#Cc1cccc2nc([C@H](C)NC(=O)c3c(N)nn4cccnc34)n(-c3ccccc3)c(=O)c12 [Compound 1] | X (X = 10 to <50) | 0.001 to 0.05 µM | 0.001 to 0.1 µM | 5 to 10 µM | 1 to 5 µM | 0.001 to 0.1 µM | X (X = 10 to <50) | 0.5 to 1 µM
21 | C[C@H](NC(=O)c1c(N)nn2cccnc12)c1cc2cccc(C#CC(C)(C)C)c2c(=O)n1-c1ccccc1 [Compound 3] | X (X = 10 to <50) | 0.05 to 0.1 µM | 1 to 10 µM | 5 to 10 µM | 5 to 10 µM | 1 to 5 µM | W (W = >1 to <10) | 5 to 10 µM
22 | C[C@H](NC(=O)c1c(N)nn2cccnc12)c1cc2cccc(C#Cc3ccccc3)c2c(=O)n1-c1ccccc1 [Compound 5] | W (W = >1 to <10) | 0.001 to 0.05 µM | 0.001 to 0.1 µM | 5 to 10 µM | 5 to 10 µM | 1 to 5 µM | V (V = 0.1 to 1) | 0.001 to 0.5 µM
23 | COc1ccc(C#Cc2cccc3cc([C@H](C)NC(=O)c4c(N)nn5cccnc45)n(-c4ccccc4)c(=O)c23)cn1 [Compound 6] | X (X = 10 to <50) | 0.001 to 0.05 µM | 0.5 to 1 µM | 5 to 10 µM | 5 to 10 µM | 0.1 to 0.5 µM | Y (Y = 50 to <850) | 5 to 10 µM
24 | C[C@H](NC(=O)c1c(N)nn2cccnc12)c1cc2cccc(C#Cc3cncn3C)c2c(=O)n1-c1ccccc1 [Compound 7] | Y (Y = 50 to <850) | 0.001 to 0.05 µM | 0.5 to 1 µM | 5 to 10 µM | 5 to 10 µM | 0.1 to 0.5 µM | Y (Y = 50 to <850) | 5 to 10 µM
25 | C[C@H](NC(=O)c1c(N)nn2cccnc12)c1nc2cccc(C#Cc3cnn(C)c3)c2c(=O)n1-c1ccccc1 [Compound 21] | – | – | 0.1 to 0.5 µM | 5 to 10 µM | 5 to 10 µM | – | – | 5 to 10 µM
26 | C[C@H](NC(=O)c1c(N)nn2cccnc12)c1cc2cccc(C#Cc3cnn(C)c3)c2c(=O)n1C1CC1 [Compound 25] | – | 0.001 to 0.05 µM | 0.1 to 0.5 µM | 1 to 5 µM | 1 to 5 µM | – | – | 5 to 10 µM
27 | C[C@H](NC(=O)c1c(N)nn2cccnc12)c1cc2cccc(C#Cc3ccc(=O)[nH]c3)c2c(=O)n1-c1ccccc1 [Compound 33] | – | 0.001 to 0.05 µM | – | – | – | – | – | –
28 | C[C@H](NC(=O)c1cncc2cccnc12)c1cc2cccc(C#Cc3cnn(C)c3)c2c(=O)n1-c1ccccc1 [Compound 42] | – | 0.001 to 0.05 µM | – | – | – | – | – | –
29 | C#Cc1cccc2nc([C@H](C)NC(=O)c3nccnc3N)n(-c3ccccc3)c(=O)c12 [Compound 47] | – | – | – | 1 to 5 µM | 0.001 to 0.5 µM | 0.001 to 0.1 µM | V (V = 0.1 to 1) | 0.001 to 0.5 µM
30 | COc1cnc(C(=O)N[C@@H](C)c2cc3cccc(C#Cc4cnn(C)c4)c3c(=O)n2-c2ccccc2)c(N)n1 [Compound 71] | – | – | 1 to 10 µM | 5 to 10 µM | 5 to 10 µM | > 5 µM | V (V = 0.1 to 1) | 5 to 10 µM
31 | C[C@H](NC(=O)c1c(N)nn2cccnc12)c1cc2cccc(C#CC3CCN(C)CC3)c2c(=O)n1-c1ccccc1 [Compound 85] | – | – | – | 5 to 10 µM | 5 to 10 µM | 0.5 to 1 µM | X (X = 10 to <50) | 5 to 10 µM
32 | C[C@H](NC(=O)c1c(N)nn2cccnc12)c1cc2cccc(/C=C/c3ccccc3)c2c(=O)n1-c1ccccc1 [Compound 87] | – | – | – | 5 to 10 µM | 5 to 10 µM | > 5 µM | V (V = 0.1 to 1) | 5 to 10 µM
33 | C[C@H](NC(=O)c1c(N)nn2cccnc12)c1cc2cccc(N)c2c(=O)n1-c1ccccc1 [Compound 109, (S)-2-amino-N-(1-(8-amino-1-oxo-2-phenyl-1,2-dihydroisoquinolin-3-yl)ethyl)pyrazolo[1,5-a]pyrimidine-3-carboxamide] | – | – | – | 5 to 10 µM | 1 to 5 µM | 0.001 to 0.1 µM | X (X = 10 to <50) | 1 to 5 µM
